This passage reports IC50 results from ChEMBL document CHEMBL5726336, “Arylquinazolines” (2017).

The assay has as its target DNA-dependent protein kinase catalytic subunit (Homo sapiens, UniProt P78527). Description: Biochemical Assay: The kinase assay was carried out in streptavidin-coated […] microtitre flashplates. […] The reaction was stopped using 50 ul/well of 200 mM EDTA. After incubation for a further 30 min at room temperature, the liquid was removed. Each well was washed three times with 100 ul of 0.9% saline solution. A nonspecific reaction (blank value) was determined using 10 uM of an innate kinase inhibitor. The radioactivity measurement was carried out using a TopCount. IC50 values were calculated in RS1.

The structures appear in SMILES notation.

Chain of DNA-dependent protein kinase catalytic subunit (P78527 whole entry): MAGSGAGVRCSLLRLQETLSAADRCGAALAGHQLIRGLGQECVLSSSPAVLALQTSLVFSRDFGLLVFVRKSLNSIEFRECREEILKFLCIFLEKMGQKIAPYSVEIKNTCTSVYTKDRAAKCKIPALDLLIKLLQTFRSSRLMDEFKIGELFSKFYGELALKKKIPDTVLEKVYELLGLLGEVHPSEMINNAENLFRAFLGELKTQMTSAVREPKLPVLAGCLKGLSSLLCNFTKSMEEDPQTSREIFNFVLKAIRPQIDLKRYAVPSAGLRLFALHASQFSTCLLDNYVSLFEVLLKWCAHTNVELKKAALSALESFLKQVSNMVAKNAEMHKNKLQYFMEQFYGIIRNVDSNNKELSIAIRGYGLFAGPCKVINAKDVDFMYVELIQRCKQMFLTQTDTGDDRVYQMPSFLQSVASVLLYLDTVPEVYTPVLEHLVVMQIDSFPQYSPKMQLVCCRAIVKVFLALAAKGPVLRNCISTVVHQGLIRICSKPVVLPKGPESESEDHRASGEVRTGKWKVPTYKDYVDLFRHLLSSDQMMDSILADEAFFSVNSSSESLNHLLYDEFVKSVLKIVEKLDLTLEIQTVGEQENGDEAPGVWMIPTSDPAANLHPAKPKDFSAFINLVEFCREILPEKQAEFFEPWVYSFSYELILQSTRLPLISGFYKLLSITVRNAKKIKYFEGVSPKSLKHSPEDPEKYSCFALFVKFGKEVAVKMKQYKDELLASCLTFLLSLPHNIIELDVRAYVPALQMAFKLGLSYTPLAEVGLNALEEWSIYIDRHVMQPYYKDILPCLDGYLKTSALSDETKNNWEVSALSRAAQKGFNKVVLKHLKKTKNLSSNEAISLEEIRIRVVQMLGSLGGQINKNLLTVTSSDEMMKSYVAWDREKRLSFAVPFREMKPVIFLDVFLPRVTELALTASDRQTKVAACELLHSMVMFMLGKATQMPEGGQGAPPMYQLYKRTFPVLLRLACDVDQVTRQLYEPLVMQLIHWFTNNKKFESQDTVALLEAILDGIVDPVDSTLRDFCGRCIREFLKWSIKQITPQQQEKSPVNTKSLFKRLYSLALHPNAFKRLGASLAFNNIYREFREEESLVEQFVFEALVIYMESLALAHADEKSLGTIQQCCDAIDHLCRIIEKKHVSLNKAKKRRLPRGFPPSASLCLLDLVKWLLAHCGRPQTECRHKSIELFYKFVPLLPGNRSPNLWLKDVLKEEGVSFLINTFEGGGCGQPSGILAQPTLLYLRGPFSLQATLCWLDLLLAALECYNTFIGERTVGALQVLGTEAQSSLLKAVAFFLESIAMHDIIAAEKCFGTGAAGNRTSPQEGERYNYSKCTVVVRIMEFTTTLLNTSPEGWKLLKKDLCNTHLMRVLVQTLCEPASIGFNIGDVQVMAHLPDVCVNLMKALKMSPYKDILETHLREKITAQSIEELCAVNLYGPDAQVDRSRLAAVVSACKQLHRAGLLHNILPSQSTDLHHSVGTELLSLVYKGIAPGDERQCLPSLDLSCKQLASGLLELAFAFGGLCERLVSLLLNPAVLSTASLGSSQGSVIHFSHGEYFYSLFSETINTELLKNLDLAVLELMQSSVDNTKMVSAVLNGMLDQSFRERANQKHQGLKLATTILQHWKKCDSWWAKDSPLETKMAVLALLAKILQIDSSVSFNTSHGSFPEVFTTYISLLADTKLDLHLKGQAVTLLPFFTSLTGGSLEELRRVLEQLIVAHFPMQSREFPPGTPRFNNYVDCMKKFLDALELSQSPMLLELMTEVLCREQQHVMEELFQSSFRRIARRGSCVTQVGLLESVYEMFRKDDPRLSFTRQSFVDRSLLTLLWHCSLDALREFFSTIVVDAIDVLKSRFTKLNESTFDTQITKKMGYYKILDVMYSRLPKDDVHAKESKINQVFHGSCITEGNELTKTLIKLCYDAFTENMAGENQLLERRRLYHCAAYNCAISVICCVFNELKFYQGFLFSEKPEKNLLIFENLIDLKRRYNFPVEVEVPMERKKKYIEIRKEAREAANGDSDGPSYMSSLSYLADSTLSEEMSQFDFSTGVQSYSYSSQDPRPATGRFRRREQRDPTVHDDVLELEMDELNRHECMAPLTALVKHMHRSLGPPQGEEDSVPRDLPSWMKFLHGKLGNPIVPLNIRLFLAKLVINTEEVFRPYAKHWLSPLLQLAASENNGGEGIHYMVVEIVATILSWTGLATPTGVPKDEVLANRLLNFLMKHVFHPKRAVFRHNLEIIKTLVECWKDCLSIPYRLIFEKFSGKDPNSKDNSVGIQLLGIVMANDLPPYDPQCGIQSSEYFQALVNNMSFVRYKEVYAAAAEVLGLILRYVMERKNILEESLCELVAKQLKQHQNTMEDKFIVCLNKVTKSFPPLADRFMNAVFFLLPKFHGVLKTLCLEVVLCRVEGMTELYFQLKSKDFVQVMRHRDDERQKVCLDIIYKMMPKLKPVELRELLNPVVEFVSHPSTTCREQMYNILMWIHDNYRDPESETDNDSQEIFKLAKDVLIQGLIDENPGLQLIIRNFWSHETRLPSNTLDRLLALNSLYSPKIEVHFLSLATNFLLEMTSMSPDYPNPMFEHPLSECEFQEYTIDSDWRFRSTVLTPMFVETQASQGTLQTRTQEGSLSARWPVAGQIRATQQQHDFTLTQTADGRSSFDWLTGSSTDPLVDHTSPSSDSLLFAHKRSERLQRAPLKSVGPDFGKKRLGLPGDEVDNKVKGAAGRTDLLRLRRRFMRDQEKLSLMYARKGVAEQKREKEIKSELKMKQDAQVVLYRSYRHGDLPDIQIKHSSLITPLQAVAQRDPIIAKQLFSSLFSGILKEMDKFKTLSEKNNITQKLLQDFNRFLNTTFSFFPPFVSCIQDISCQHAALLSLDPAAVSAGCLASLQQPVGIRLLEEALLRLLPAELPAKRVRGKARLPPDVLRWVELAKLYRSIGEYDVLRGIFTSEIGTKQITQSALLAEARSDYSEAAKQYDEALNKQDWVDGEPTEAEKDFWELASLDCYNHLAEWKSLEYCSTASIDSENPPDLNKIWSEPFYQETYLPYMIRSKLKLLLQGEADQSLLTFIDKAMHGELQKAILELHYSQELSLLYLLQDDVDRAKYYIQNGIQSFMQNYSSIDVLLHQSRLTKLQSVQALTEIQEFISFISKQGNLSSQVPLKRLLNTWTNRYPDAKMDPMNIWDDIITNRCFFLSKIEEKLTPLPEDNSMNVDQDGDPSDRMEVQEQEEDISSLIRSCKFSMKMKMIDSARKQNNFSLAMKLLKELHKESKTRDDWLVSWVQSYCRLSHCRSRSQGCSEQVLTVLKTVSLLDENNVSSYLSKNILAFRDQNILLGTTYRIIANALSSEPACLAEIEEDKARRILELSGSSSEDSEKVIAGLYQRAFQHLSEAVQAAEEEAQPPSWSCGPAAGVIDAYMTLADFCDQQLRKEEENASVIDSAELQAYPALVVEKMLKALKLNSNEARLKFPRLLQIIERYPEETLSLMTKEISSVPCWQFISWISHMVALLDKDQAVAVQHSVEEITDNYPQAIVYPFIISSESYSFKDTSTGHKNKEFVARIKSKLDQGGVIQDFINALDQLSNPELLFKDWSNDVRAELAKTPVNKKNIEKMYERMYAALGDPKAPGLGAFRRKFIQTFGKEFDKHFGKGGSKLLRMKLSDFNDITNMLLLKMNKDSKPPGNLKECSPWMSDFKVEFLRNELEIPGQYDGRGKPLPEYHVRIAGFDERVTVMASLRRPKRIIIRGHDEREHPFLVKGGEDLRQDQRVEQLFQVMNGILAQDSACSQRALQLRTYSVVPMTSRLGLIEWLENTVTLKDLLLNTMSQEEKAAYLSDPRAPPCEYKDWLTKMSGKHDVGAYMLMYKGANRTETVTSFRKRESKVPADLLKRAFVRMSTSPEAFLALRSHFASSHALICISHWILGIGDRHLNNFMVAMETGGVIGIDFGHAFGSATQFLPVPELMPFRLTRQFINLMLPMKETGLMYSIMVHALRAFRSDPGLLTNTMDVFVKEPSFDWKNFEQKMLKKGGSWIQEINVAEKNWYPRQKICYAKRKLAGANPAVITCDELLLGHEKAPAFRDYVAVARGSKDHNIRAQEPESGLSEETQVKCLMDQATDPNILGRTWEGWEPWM

The IC50 is the concentration at which inhibition is half-maximal. For the compound `CCNCc1csc(C(O)c2cc(-c3ncnc4cc(N5CCOCC5)ccc34)c(F)cc2Cl)n1` (stereo unspecified), the 50% inhibitory concentration (IC50) was 7 to 30 nM.
